Laboratory results taken from PMC5218480 (PLoS ONE, 2017).

System: MV-4-11 cells
Test: Gene expression microarray analysis (Affymetrix PrimeView) and GSEA
Type: cell-based, human
Parameters: RFU PODN (11730768_x_at) / Fold change /veh PODN (11730768_x_at) / RFU LINC00158 (11744669_a_at) / Fold change /veh LINC00158 (11744669_a_at) / RFU DUSP10 (11751237_a_at) / Fold change /veh DUSP10 (11751237_a_at) / RFU ID3 (11757404_x_at) / Fold change /veh ID3 (11757404_x_at) / RFU PLEKHG5 (11737974_s_at) / Fold change /veh PLEKHG5 (11737974_s_at) / RFU LRRC4B (11730491_at) / Fold change /veh LRRC4B (11730491_at) / RFU GIMAP4 (11747438_a_at) / Fold change /veh GIMAP4 (11747438_a_at) / RFU KRT8 (11758183_x_at) / Fold change /veh KRT8 (11758183_x_at) / RFU CNN1 (11734310_a_at) / Fold change /veh CNN1 (11734310_a_at) / RFU VPS37D (11726825_at) / Fold change /veh VPS37D (11726825_at) / RFU C10orf10 (11716522_x_at) / Fold change /veh C10orf10 (11716522_x_at) / RFU KIR2DL2 /// KIR2DL4 /// KIR2DL5A /// KIR2DL5B /// KIR2DS1 /// KIR2DS2 /// KIR2DS3 /// KIR2DS4 /// KIR3DL3 /// KIR3DL3 /// KIR3DS1 (11738374_at) / Fold change /veh KIR2DL2 /// KIR2DL4 /// KIR2DL5A /// KIR2DL5B /// KIR2DS1 /// KIR2DS2 /// KIR2DS3 /// KIR2DS4 /// KIR3DL3 /// KIR3DL3 /// KIR3DS1 (11738374_at) / RFU C1QL1 (11718748_at) / Fold change /veh C1QL1 (11718748_at) / RFU TMPRSS4 (11747572_a_at) / Fold change /veh TMPRSS4 (11747572_a_at) / RFU HAMP (11756126_x_at) / Fold change /veh HAMP (11756126_x_at) / RFU RNFT2 (11725882_a_at) / Fold change /veh RNFT2 (11725882_a_at) / RFU NR4A2 (11747474_a_at) / Fold change /veh NR4A2 (11747474_a_at) / RFU ABCC12 (11746883_a_at) / Fold change /veh ABCC12 (11746883_a_at) / RFU TMEM136 (11760407_x_at) / Fold change /veh TMEM136 (11760407_x_at) / RFU CLDN22 /// WWC2 (11732394_at) / Fold change /veh CLDN22 /// WWC2 (11732394_at) / RFU HLA-DPB1 (11760878_x_at) / Fold change /veh HLA-DPB1 (11760878_x_at) / RFU SPINT1 (11716480_a_at) / Fold change /veh SPINT1 (11716480_a_at) / RFU GAP43 (11754022_s_at) / Fold change /veh GAP43 (11754022_s_at) / RFU A4GNT (11735810_at) / Fold change /veh A4GNT (11735810_at) / RFU PRB3 (11715151_x_at) / Fold change /veh PRB3 (11715151_x_at) / RFU TUBB4B (11761932_at) / Fold change /veh TUBB4B (11761932_at) / RFU CAPN14 (11732068_a_at) / Fold change /veh CAPN14 (11732068_a_at) / RFU TMCC2 (11721928_a_at) / Fold change /veh TMCC2 (11721928_a_at) / RFU IRGQ (11745062_a_at) / Fold change /veh IRGQ (11745062_a_at) / RFU FAM174B (11720279_a_at) / Fold change /veh FAM174B (11720279_a_at) / RFU TMPRSS4 (11748680_a_at) / Fold change /veh TMPRSS4 (11748680_a_at) / RFU FAM212B (11763350_a_at) / Fold change /veh FAM212B (11763350_a_at) / RFU PLEKHG5 (11743358_a_at) / Fold change /veh PLEKHG5 (11743358_a_at) / RFU ZSCAN30 (11745921_a_at) / Fold change /veh ZSCAN30 (11745921_a_at) / RFU CMKLR1 (11741424_a_at) / Fold change /veh CMKLR1 (11741424_a_at) / RFU LOC101060620 /// MAPK8IP1 (11723275_at) / Fold change /veh LOC101060620 /// MAPK8IP1 (11723275_at) / RFU SPTSSB (11747773_x_at) / Fold change /veh SPTSSB (11747773_x_at) / RFU PRSS12 (11739890_at) / Fold change /veh PRSS12 (11739890_at) / RFU BIN1 (11741810_x_at) / Fold change /veh BIN1 (11741810_x_at) / RFU WNT11 (11732464_a_at) / Fold change /veh WNT11 (11732464_a_at) / RFU C10orf10 (11716521_a_at) / Fold change /veh C10orf10 (11716521_a_at) / RFU C5orf56 (11738089_at) / Fold change /veh C5orf56 (11738089_at) / RFU CYB561 (11721691_x_at) / Fold change /veh CYB561 (11721691_x_at) / RFU ANKRD19P (11752326_a_at) / Fold change /veh ANKRD19P (11752326_a_at) / RFU OR2T12 /// OR2T33 /// OR2T8 (11738714_s_at) / Fold change /veh OR2T12 /// OR2T33 /// OR2T8 (11738714_s_at) / RFU VCAN (11748164_a_at) / Fold change /veh VCAN (11748164_a_at) / RFU JSRP1 (11732532_at) / Fold change /veh JSRP1 (11732532_at) / RFU KRTAP10-11 (11738290_x_at) / Fold change /veh KRTAP10-11 (11738290_x_at) / RFU MYO3A (11730013_a_at) / Fold change /veh MYO3A (11730013_a_at) / RFU EBF3 (11725865_a_at) / Fold change /veh EBF3 (11725865_a_at) / RFU CAMK2N1 (11719241_x_at) / Fold change /veh CAMK2N1 (11719241_x_at) / RFU C5orf56 (11738088_a_at) / Fold change /veh C5orf56 (11738088_a_at) / RFU OLFML3 (11715873_a_at) / Fold change /veh OLFML3 (11715873_a_at) / RFU LOC100653217 /// NTM (11731650_a_at) / Fold change /veh LOC100653217 /// NTM (11731650_a_at) / RFU MAPK11 (11762145_a_at) / Fold change /veh MAPK11 (11762145_a_at) / RFU FIZ1 (11724087_x_at) / Fold change /veh FIZ1 (11724087_x_at) / RFU OASL (11726364_x_at) / Fold change /veh OASL (11726364_x_at) / RFU SOX15 (11748057_x_at) / Fold change /veh SOX15 (11748057_x_at) / RFU CD79A (11719716_a_at) / Fold change /veh CD79A (11719716_a_at) / RFU HIST1H1D (11736915_at) / Fold change /veh HIST1H1D (11736915_at) / RFU CASKIN2 (11723855_a_at) / Fold change /veh CASKIN2 (11723855_a_at) / RFU LOC730098 (11760151_x_at) / Fold change /veh LOC730098 (11760151_x_at) / RFU OR4N2 (11742367_at) / Fold change /veh OR4N2 (11742367_at) / RFU PRRT2 (11749266_a_at) / Fold change /veh PRRT2 (11749266_a_at) / RFU SNX32 (11753110_a_at) / Fold change /veh SNX32 (11753110_a_at) / RFU CDHR5 (11726645_a_at) / Fold change /veh CDHR5 (11726645_a_at) / RFU RCAN1 (11760418_a_at) / Fold change /veh RCAN1 (11760418_a_at) / RFU FAM167A (11723789_a_at) / Fold change /veh FAM167A (11723789_a_at) / RFU FAM26E (11764081_at) / Fold change /veh FAM26E (11764081_at) / RFU ISYNA1 (11749810_s_at) / Fold change /veh ISYNA1 (11749810_s_at) / RFU ACY1 (11761880_at) / Fold change /veh ACY1 (11761880_at) / RFU 11764098_at / Fold change /veh 11764098_at / RFU SAMD14 (11745864_x_at) / Fold change /veh SAMD14 (11745864_x_at) / RFU NPB (11741838_a_at) / Fold change /veh NPB (11741838_a_at) / RFU TMPRSS6 (11731388_a_at) / Fold change /veh TMPRSS6 (11731388_a_at) / RFU KRTAP10-2 (11738614_at) / Fold change /veh KRTAP10-2 (11738614_at) / RFU ARHGAP8 /// PRR5-ARHGAP8 (11727945_x_at) / Fold change /veh ARHGAP8 /// PRR5-ARHGAP8 (11727945_x_at) / RFU KRTAP5-7 /// NADSYN1 (11734609_at) / Fold change /veh KRTAP5-7 /// NADSYN1 (11734609_at) / RFU RASL12 (11751679_a_at) / Fold change /veh RASL12 (11751679_a_at) / RFU CDKN2B (11736163_a_at) / Fold change /veh CDKN2B (11736163_a_at) / RFU PRF1 (11729649_at) / Fold change /veh PRF1 (11729649_at) / RFU, ZNF638 /// ZNF638-IT1 / Fold change vs veh, ZNF638 /// ZNF638-IT1 / RFU, PANK3 / Fold change vs veh, PANK3 / RFU, SH3YL1 / Fold change vs veh, SH3YL1 / RFU, ZEB2 / Fold change vs veh, ZEB2 / RFU, NRIP1 / Fold change vs veh, NRIP1 / RFU, PTTG1IP / Fold change vs veh, PTTG1IP / RFU, CAPN2 / Fold change vs veh, CAPN2 / RFU, MED14 / Fold change vs veh, MED14 / RFU, SNORA58 / Fold change vs veh, SNORA58 / RFU, C1orf63 / Fold change vs veh, C1orf63 / RFU, LRRFIP1 / Fold change vs veh, LRRFIP1 / RFU, NDUFAF7 / Fold change vs veh, NDUFAF7 / RFU, SLC12A2 / Fold change vs veh, SLC12A2 / RFU, IBTK / Fold change vs veh, IBTK / RFU, ESF1 / Fold change vs veh, ESF1 / Fold change vs veh, TMEM50B / RFU, TAOK1 / Fold change vs veh, TAOK1 / RFU, ACBD3 / Fold change vs veh, ACBD3 / RFU, TMA16 / Fold change vs veh, TMA16 / RFU, RWDD3 / Fold change vs veh, RWDD3 / RFU, BCAT1 / Fold change vs veh, BCAT1 / RFU, EDEM3 / Fold change vs veh, EDEM3 / RFU, TMEM33 / Fold change vs veh, TMEM33 / RFU, WDR75 / Fold change vs veh, WDR75 / RFU, AHCTF1 / Fold change vs veh, AHCTF1 / RFU, TFRC / Fold change vs veh, TFRC / RFU, ZDHHC17 / Fold change vs veh, ZDHHC17 / RFU, NOM1 / Fold change vs veh, NOM1 / RFU, ARL8B / Fold change vs veh, ARL8B / RFU, ZBTB11 / Fold change vs veh, ZBTB11 / RFU, TAMM41 / Fold change vs veh, TAMM41 / RFU, KIAA1704 /// LOC100996395 / Fold change vs veh, KIAA1704 /// LOC100996395 / RFU, ING1 / Fold change vs veh, ING1 / RFU, TRMT61B / Fold change vs veh, TRMT61B / RFU, FUBP3 / Fold change vs veh, FUBP3 / RFU, TP53 / Fold change vs veh, TP53 / RFU, TNKS2 / Fold change vs veh, TNKS2 / RFU, ZFP14 / Fold change vs veh, ZFP14 / RFU, ACTR2 / Fold change vs veh, ACTR2 / RFU, PPP3R1 / Fold change vs veh, PPP3R1 / RFU, PIK3R1 / Fold change vs veh, PIK3R1 / RFU, HNRNPA1 / Fold change vs veh, HNRNPA1 / RFU, RNF170 / Fold change vs veh, RNF170 / RFU, ZNF28 / Fold change vs veh, ZNF28 / RFU, RNGTT / Fold change vs veh, RNGTT / RFU, OGT / Fold change vs veh, OGT / RFU, BRD1 / Fold change vs veh, BRD1 / RFU, MARS / Fold change vs veh, MARS / RFU, ZNF655 / Fold change vs veh, ZNF655 / RFU, FAHD1 / Fold change vs veh, FAHD1 / RFU, BDP1 / Fold change vs veh, BDP1 / RFU, LRRCC1 / Fold change vs veh, LRRCC1 / RFU, ARID1A / Fold change vs veh, ARID1A / RFU, ZNF146 / Fold change vs veh, ZNF146 / RFU, ZNF330 / Fold change vs veh, ZNF330 / RFU, GPN3 / Fold change vs veh, GPN3 / RFU, C9orf123 / Fold change vs veh, C9orf123 / RFU, N4BP2L2 / Fold change vs veh, N4BP2L2 / RFU, ARFIP1 / Fold change vs veh, ARFIP1 / RFU, FAM179B / Fold change vs veh, FAM179B / RFU, BCL10 / Fold change vs veh, BCL10 / RFU, UHRF1BP1L / Fold change vs veh, UHRF1BP1L / RFU, BET1 / Fold change vs veh, BET1 / RFU, CNOT2 / Fold change vs veh, CNOT2 / RFU, ZNF268 / Fold change vs veh, ZNF268 / Fold change vs veh, ZNF507 / RFU, DGCR2 / Fold change vs veh, DGCR2 / RFU, WDSUB1 / Fold change vs veh, WDSUB1 / Fold change vs veh, HSP90B1 /// MIR3652 / RFU, ADSS / Fold change vs veh, ADSS / RFU, GK / Fold change vs veh, GK / RFU, ZNF148 / Fold change vs veh, ZNF148 / RFU, TAF9 / Fold change vs veh, TAF9 / RFU, SLC1A5 / Fold change vs veh, SLC1A5 / RFU, SLMO2 / Fold change vs veh, SLMO2 / RFU, ABCC4 / Fold change vs veh, ABCC4 / RFU, LOC101060439 /// RAP1B / Fold change vs veh, LOC101060439 /// RAP1B / RFU, RFX7 / Fold change vs veh, RFX7 / RFU, GTPBP10 / Fold change vs veh, GTPBP10 / RFU, CNEP1R1 / Fold change vs veh, CNEP1R1 / RFU, BIVM-ERCC5 /// ERCC5 / Fold change vs veh, BIVM-ERCC5 /// ERCC5 / RFU, ILF3 / Fold change vs veh, ILF3 / RFU 11762660_at / Fold change /veh 11762660_at / RFU VCAN (11757783_s_at) / Fold change /veh VCAN (11757783_s_at) / RFU DDX43 (11728927_at) / Fold change /veh DDX43 (11728927_at) / RFU KRT8 (11758188_x_at) / Fold change /veh KRT8 (11758188_x_at) / RFU NKD1 (11759106_at) / Fold change /veh NKD1 (11759106_at) / RFU SRD5A1 (11742802_a_at) / Fold change /veh SRD5A1 (11742802_a_at) / RFU TPSAB1 /// TPSB2 (11721975_s_at) / Fold change /veh TPSAB1 /// TPSB2 (11721975_s_at) / RFU GSTM3 (11746129_a_at) / Fold change /veh GSTM3 (11746129_a_at) / RFU IL23R (11737362_x_at) / Fold change /veh IL23R (11737362_x_at) / RFU TMEM51 (11727254_a_at) / Fold change /veh TMEM51 (11727254_a_at) / RFU PIWIL2 (11732686_x_at) / Fold change /veh PIWIL2 (11732686_x_at) / RFU ORM1 (11744905_x_at) / Fold change /veh ORM1 (11744905_x_at) / RFU CCDC152 (11743942_at) / Fold change /veh CCDC152 (11743942_at) / RFU ECM1 (11717891_a_at) / Fold change /veh ECM1 (11717891_a_at) / RFU IL23R (11748794_a_at) / Fold change /veh IL23R (11748794_a_at) / RFU TNFAIP8L3 (11732012_x_at) / Fold change /veh TNFAIP8L3 (11732012_x_at) / RFU MBOAT4 (11741988_at) / Fold change /veh MBOAT4 (11741988_at) / RFU 11764193_at / Fold change /veh 11764193_at / RFU TMEM53 (11763286_at) / Fold change /veh TMEM53 (11763286_at) / RFU MAGEB2 (11727129_at) / Fold change /veh MAGEB2 (11727129_at) / RFU TMEM200A (11744735_a_at) / Fold change /veh TMEM200A (11744735_a_at) / RFU CCDC152 (11751479_a_at) / Fold change /veh CCDC152 (11751479_a_at) / RFU FAM211A (11726209_a_at) / Fold change /veh FAM211A (11726209_a_at) / RFU RGS16 (11746705_a_at) / Fold change /veh RGS16 (11746705_a_at) / RFU VCAN (11755009_s_at) / Fold change /veh VCAN (11755009_s_at) / RFU RHOB (11743442_s_at) / Fold change /veh RHOB (11743442_s_at) / RFU RGS16 (11720943_a_at) / Fold change /veh RGS16 (11720943_a_at) / RFU RGS16 (11720944_at) / Fold change /veh RGS16 (11720944_at) / RFU, VPS4B / Fold change vs veh, VPS4B / RFU, CREB1 / Fold change vs veh, CREB1 / RFU, DNAJC13 / Fold change vs veh, DNAJC13 / RFU, GNAQ / Fold change vs veh, GNAQ / RFU, CDK5R1 / Fold change vs veh, CDK5R1 / RFU, ZRANB3 / Fold change vs veh, ZRANB3 / RFU, CUL4A / Fold change vs veh, CUL4A / RFU, CCNY / Fold change vs veh, CCNY / RFU, UFL1 / Fold change vs veh, UFL1 / RFU, COG3 / Fold change vs veh, COG3 / RFU, DIAPH2 / Fold change vs veh, DIAPH2 / RFU, SKA2 / Fold change vs veh, SKA2 / RFU, AFF3 / Fold change vs veh, AFF3 / RFU, LMF1 / Fold change vs veh, LMF1 / RFU, IPO11 / Fold change vs veh, IPO11 / RFU, DFFB / Fold change vs veh, DFFB / RFU, FOXP1 / Fold change vs veh, FOXP1 / RFU, CARD8 / Fold change vs veh, CARD8 / RFU, STRN3 / Fold change vs veh, STRN3 / RFU, ADK / Fold change vs veh, ADK / RFU, RASSF2 / Fold change vs veh, RASSF2 / RFU, WIPF1 / Fold change vs veh, WIPF1 / RFU, LARP1B / Fold change vs veh, LARP1B / RFU, RASA1 / Fold change vs veh, RASA1 / RFU, RB1 / Fold change vs veh, RB1 / RFU, PPFIA1 / Fold change vs veh, PPFIA1 / RFU, MAT2A / Fold change vs veh, MAT2A / RFU, CCT5 / Fold change vs veh, CCT5 / RFU, WDR92 / Fold change vs veh, WDR92 / RFU, CUX1 / Fold change vs veh, CUX1 / RFU, TTC7A / Fold change vs veh, TTC7A / RFU, TMEM135 / Fold change vs veh, TMEM135 / RFU, DEPTOR / Fold change vs veh, DEPTOR / RFU, CPM / Fold change vs veh, CPM / RFU, DNAJB6 / Fold change vs veh, DNAJB6 / RFU, CACNA2D3 / Fold change vs veh, CACNA2D3 / RFU, DTX4 / Fold change vs veh, DTX4 / RFU, TFCP2 / Fold change vs veh, TFCP2 / RFU, GMCL1 /// GMCL1P1 / Fold change vs veh, GMCL1 /// GMCL1P1 / RFU, AEBP2 / Fold change vs veh, AEBP2 / RFU, SNHG1 /// SNORD22 /// SNORD25 /// SNORD26 /// SNORD27 /// SNORD28 /// SNORD29 /// SNORD31 / Fold change vs veh, SNHG1 /// SNORD22 /// SNORD25 /// SNORD26 /// SNORD27 /// SNORD28 /// SNORD29 /// SNORD31 / Fold change (Aza/veh), C12orf56 (ProbeSet 11735607_a_at) / Fold change (ACY-1035/veh), C12orf56 (ProbeSet 11735607_a_at) / Fold change (Aza/veh), FGFR1OP (ProbeSet 11751329_s_at) / Fold change (ACY-1035/veh), FGFR1OP (ProbeSet 11751329_s_at) / Fold change (Aza/veh), VPS36 (ProbeSet 11739960_a_at) / Fold change (ACY-1035/veh), VPS36 (ProbeSet 11739960_a_at) / RFU SYPL1 (11715823_x_at) / Fold change /veh SYPL1 (11715823_x_at) / RFU IGFBP7 (11715501_s_at) / Fold change /veh IGFBP7 (11715501_s_at) / RFU REEP3 (11722064_at) / Fold change /veh REEP3 (11722064_at) / RFU IGLL1 (11728026_x_at) / Fold change /veh IGLL1 (11728026_x_at): dose or concentration left out as unconfirmed
Settings: ProbeSet 11753623_s_at; LIST D

## Nc1ccc(-c2cccs2)cc1NC(=O)c1ccc2c(c1)cc(C1CC1)n2CCN1CCOCC1 [ACY-1035]
  Fold change vs veh, LOC101060439 /// RAP1B: 0.85
